Patent US20230265151A1, “GIP/GLP1 CO-AGONIST COMPOUNDS” (priority 2020, published 2023)
Where two headings read alike, the source gives them in different places.

Experiments:
hGIPR = target: T1, hGIPR (Homo sapiens, UniProt P48546); assay: Functional cAMP formation (HTRF) in HEK-293 clonal cells expressing hGIPR, 0.1% bovine casein, without or with 1.0% human serum albumin; format: cell-based; conditions: for Emax: percent of maximal response to GIP(1-42)NH2; for EC50: cAMP
T1 construct: expressed in transfected cells
T1 sequence (P48546 22-466): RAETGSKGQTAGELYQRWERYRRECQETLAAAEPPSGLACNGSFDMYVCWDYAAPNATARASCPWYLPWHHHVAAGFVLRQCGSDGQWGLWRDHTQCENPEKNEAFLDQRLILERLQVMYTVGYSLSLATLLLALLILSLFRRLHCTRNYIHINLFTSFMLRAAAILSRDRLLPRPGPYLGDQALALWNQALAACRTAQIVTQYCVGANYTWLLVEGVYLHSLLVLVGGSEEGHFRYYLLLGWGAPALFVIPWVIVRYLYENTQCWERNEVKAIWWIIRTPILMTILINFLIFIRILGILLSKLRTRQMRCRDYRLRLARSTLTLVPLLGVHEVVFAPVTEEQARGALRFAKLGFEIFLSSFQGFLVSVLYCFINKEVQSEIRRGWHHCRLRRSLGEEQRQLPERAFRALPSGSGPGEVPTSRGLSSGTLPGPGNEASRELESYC
How it was run: (§1)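 Cells were stimulated with peptide for 30 min at 37° C, then lysed in buffer carrying cAMP-d2 and anti-cAMP Eu3+-cryptate for a competitive HTRF read after at least 60 min at room temperature. The 665/620 nm ratio was converted to nM cAMP against a standard curve.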

hGLP-1R = hGLP-1R (Homo sapiens, UniProt P43220); assay: Functional cAMP formation (HTRF) in HEK-293 clonal cells expressing hGLP-1R, 0.1% bovine casein, without or with 1.0% human serum albumin; format: cell-based; design: expressed in transfected cells; conditions: 37° C.; for Emax: HEK293, cAMP, percent of maximal response to GLP-1(7-36)NH2, read-out: hGLP-1R Emax, % ± SEM; for EC50: cAMP
How it was run: as §1

hGCGR = target: T2, hGCGR (Homo sapiens, UniProt P47871); assay: Functional cAMP formation (HTRF) in HEK-293 clonal cells expressing hGCGR, 0.1% bovine casein, without or with 1.0% human serum albumin; format: cell-based; conditions: cAMP, 37° C.
T2 construct: expressed in transfected cells
How it was run: as §1

[1] = target: T3, human GIP receptor (hGIPR) (Homo sapiens, UniProt P48546); assay: [125I]-GIP binding, SPA with membranes of CHO cells expressing hGIPR
T3 construct: expressed in transfected cells; crude membranes
T3 sequence (P48546 22-466): T1 sequence (P48546 22-466)
Protocol: Two methods are used for the preparation of crude cell membranes.
Method 1: Frozen cell pellets are lysed on ice in hypotonic buffer containing 50 mM Tris HCl, pH 7.5, and Roche Complete™ Protease Inhibitors with EDTA. […] The homogenate is centrifuged at 4° C. at 1100 × g for 10 minutes. The supernatant is collected and stored on ice while the pellets are resuspended in homogenization buffer and rehomogenized as described above. The homogenate is centrifuged at 1100 × g for 10 minutes. The second supernatant is combined with the first supernatant and centrifuged at 35000 × g for 1 hour at 4° C. The resulting membrane pellet is resuspended in homogenization buffer containing protease inhibitors at approximately 1 to 3 mg/mL, quick frozen in liquid nitrogen and stored as aliquots in a -80° C. freezer until use.
The homogenate is centrifuged at 4° C. at 1800 × g for 15 minutes. The supernatant is collected and stored on ice while the pellets are resuspended in homogenization buffer (without DNAse I) and rehomogenized as described above. The homogenate is centrifuged at 1800 × g for 15 minutes. The second supernatant is combined with the first supernatant and centrifuged an additional time at 1800 × g for 15 minutes. The overall supernatant is then centrifuged at 25000 × g for 30 minutes at 4° C. The resulting membrane pellet is resuspended in homogenization buffer (without DNAse I) containing protease inhibitors at approximately 1 to 3 mg/mL and stored as aliquots in a -80° C. freezer until use.
The binding buffer contains 25 mM HEPES, pH 7.4, 2.5 mM CaCl2, 1 mM MgCl2, 0.1% (w/v) bacitracin, 0.003% (w/v) TWEEN®-20, and Roche Complete™ Protease Inhibitors without EDTA. Peptides and GIP are thawed and 3 fold serially diluted in 100% DMSO (10 point concentration response curves). […] Plates are sealed and mixed on a plate shaker (setting 6) for 1 minute and read with a PerkinElmer Trilux MicroBeta® scintillation counter after 2.5 to 12 hours of incubation/settling time at room temperature.
Raw CPM data for concentration curves of peptides, Gcg, GLP-1, or GIP are converted to percent inhibition by subtracting nonspecific binding (binding in the presence of excess unlabeled Gcg, GLP-1, or GIP, respectively) from the individual CPM values and dividing by the total binding signal, also corrected by subtracting nonspecific binding. Data are analyzed using four-parameter (curve maximum, curve minimum, IC50, Hill slope) nonlinear regression routines (Genedata Screener, version 12.0.4, Genedata AG, Basal, Switzerland). […] Values for Ki are reported as the geometric mean, with error expressed as the standard error of the mean (SEM) and n is equal to the number of independent replicates (determined in assays performed on different days). Geometric Means are calculated as follows: […]
The Ki Ratio (Ki for native control peptide/Ki for test compound) at each receptor and each species is calculated. The Ki Ratio is a rapid indication of the apparent affinity of a peptide compared to the native control peptide.
n=⅟x means that only one value out of the total number of replicates (x) is used to express the mean. SEM is only calculated when n=2 or greater non-qualified results exist. Means are expressed as GeoMetric means with the standard error of the mean (SEM) and the number of replicates (n) indicated in parenthesis.

[2] = HEK293, cAMP, 37° C., 0.1% bovine casein and 1.0% human serum albumin, read-out: hGIPR Emax, % ± SEM
[3] = 37° C., 0.1% bovine casein (no human serum albumin), geometric mean, read-out: hGIPR EC50, nM (SEM, n)
[4] = 0.1% bovine casein and 1.0% human serum albumin
[5] = 0.1% bovine casein (no human serum albumin), geometric mean, read-out: hGLP-1R EC50, nM (SEM, n)
[6] = 0.1% bovine casein (no human serum albumin), geometric mean, read-out: hGCGR EC50, nM (SEM, n)
[7] = 0.1% bovine casein and 1.0% human serum albumin, geometric mean (SEM, n), read-out: hGCGR EC50, nM (SEM, n)
[8] = human GIPR, geometric mean (SEM, n), read-out: Binding Affinity Ki, nM (SEM, n) hGIPR

T2 sequence (P47871 26-477): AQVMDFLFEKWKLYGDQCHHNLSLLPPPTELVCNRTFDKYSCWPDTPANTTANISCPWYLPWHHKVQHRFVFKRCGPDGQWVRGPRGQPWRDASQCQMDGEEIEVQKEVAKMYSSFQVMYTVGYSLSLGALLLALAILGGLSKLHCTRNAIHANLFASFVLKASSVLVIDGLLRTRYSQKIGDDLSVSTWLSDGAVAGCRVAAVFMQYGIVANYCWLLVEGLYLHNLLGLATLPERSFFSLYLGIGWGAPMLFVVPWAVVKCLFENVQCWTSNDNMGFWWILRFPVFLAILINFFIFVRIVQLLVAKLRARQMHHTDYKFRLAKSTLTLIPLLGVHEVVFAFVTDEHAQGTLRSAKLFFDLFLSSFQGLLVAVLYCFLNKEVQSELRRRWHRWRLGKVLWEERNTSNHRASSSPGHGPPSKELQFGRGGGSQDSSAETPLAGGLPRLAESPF
Sequence of hGLP-1R (P43220 24-463): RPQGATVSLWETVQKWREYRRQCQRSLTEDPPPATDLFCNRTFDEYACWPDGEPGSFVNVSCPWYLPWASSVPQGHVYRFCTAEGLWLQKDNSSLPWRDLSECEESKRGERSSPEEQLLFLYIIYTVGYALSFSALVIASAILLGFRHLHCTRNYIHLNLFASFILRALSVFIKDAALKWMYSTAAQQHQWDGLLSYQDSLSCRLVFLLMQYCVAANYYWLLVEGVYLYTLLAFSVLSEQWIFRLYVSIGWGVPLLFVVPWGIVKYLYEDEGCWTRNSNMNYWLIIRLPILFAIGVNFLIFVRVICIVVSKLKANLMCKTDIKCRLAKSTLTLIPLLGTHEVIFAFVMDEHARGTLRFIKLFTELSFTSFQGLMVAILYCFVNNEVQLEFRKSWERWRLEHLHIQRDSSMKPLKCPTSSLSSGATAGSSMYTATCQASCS

Row | SMILES | Emax (hGIPR; [2]) [%] | EC50 (hGIPR; [3]) [nM] | Emax (hGLP-1R; [4]) [%] | EC50 (hGLP-1R; [5]) [nM] | EC50 (hGCGR; [6]) [nM] | EC50 (hGCGR; [7]) [nM] | Ki [1, 8] [nM] | Emax (hGIPR; HEK293, read-out: hGIPR Emax, % ± SEM, cAMP, 37° C., 0.1% bovine casein and 1.0% human serum albumin) [%] | Emax (hGIPR; HEK293, read-out: hGIPR Emax, % ± SEM, cAMP, 37° C., 0.1% bovine casein, arithmetic mean) [%] | EC50 (hGIPR; hGIPR EC50, nM (SEM, n), 37° C., 0.1% bovine casein (no human serum albumin), geometric mean) [nM] | EC50 (hGLP-1R; hGLP-1R EC50, nM (SEM, n), 0.1% bovine casein (no human serum albumin), geometric mean) [nM] | EC50 (hGCGR; hGCGR EC50, nM (SEM, n), 0.1% bovine casein (no human serum albumin), geometric mean) [nM] | EC50 (hGCGR; hGCGR EC50, nM (SEM, n), 0.1% bovine casein and 1.0% human serum albumin, geometric mean (SEM, n)) [nM] | Ki [1] [nM] | Emax (hGIPR; HEK293, cAMP, 37° C., 0.1% bovine casein, arithmetic mean, read-out: hGIPR Emax, % ± SEM) [%] | EC50 (hGIPR; 37° C., 0.1% bovine casein and 1.0% human serum albumin, geometric mean (SEM, n), read-out: hGIPR EC50, nM (SEM, n)) [nM] | EC50 (hGLP-1R; 0.1% bovine casein and 1.0% human serum albumin, geometric mean (SEM, n), read-out: hGLP-1R EC50, nM (SEM, n)) [nM]
1 | CCCCCCCCCCCC(=O)N[C@@H](CCC(=O)NCCOCCOCC(=O)NCCOCCOCC(=O)NCCCC[C@H](NC(=O)[C@H](CCCN)NC(=O)[C@H](CC(=O)O)NC(=O)[C@H](CC(C)C)NC(=O)[C@](C)(CC(C)C)NC(=O)[C@@H](NC(=O)C(C)(C)NC(=O)[C@H](Cc1ccncc1)NC(=O)[C@H](CC(=O)O)NC(=O)[C@H](CO)NC(=O)[C@@H](NC(=O)[C@](C)(Cc1ccccc1F)NC(=O)[C@@H](NC(=O)CNC(=O)[C@H](CCC(=O)O)NC(=O)C(C)(C)NC(=O)[C@@H](N)Cc1ccc(O)cc1)[C@@H](C)O)[C@@H](C)O)[C@@H](C)CC)C(=O)N[C@@H](C)C(=O)N[C@@H](CCC(N)=O)C(=O)NC(C)(C)C(=O)N[C@@H](CCC(=O)O)C(=O)N[C@@H](Cc1ccccc1)C(=O)N[C@H](C(=O)N[C@H](CCC(=O)O)C(=O)N[C@@](C)(Cc1ccc(O)cc1)C(=O)N[C@@H](CC(C)C)C(=O)N[C@H](C(=O)N[C@@H](CCCCNC(=O)COCCOCCNC(=O)COCCOCCNC(=O)CC[C@H](NC(=O)CCCCCCCCCCC)C(=O)O)C(=O)NCC(=O)NCC(=O)N1CCC[C@H]1C(=O)N[C@@H](CO)C(=O)N[C@@H](CO)C(=O)NCC(=O)N[C@@H](C)C(=O)N1CCC[C@H]1C(=O)N1CCC[C@H]1C(=O)N1CCC[C@H]1C(=O)N[C@@H](CO)C(N)=O)[C@@H](C)CC)[C@@H](C)CC)C(=O)O [Example 334] | 89 | 0.00987 | 105 | 0.131 | > 9950 | > 9950 | 0.0195 |  |  |  |  |  |  |  |  |  | 
2 | CC[C@H](C)[C@H](NC(=O)[C@H](CC(C)C)NC(=O)[C@](C)(Cc1ccc(O)cc1)NC(=O)[C@H](CCCCNC(=O)COCCOCCNC(=O)COCCOCCNC(=O)CC[C@H](NC(=O)CCCCCCCCCOc1ccc(C(=O)O)cc1)C(=O)O)NC(=O)[C@@H](NC(=O)[C@H](Cc1ccccc1)NC(=O)[C@H](CCC(=O)O)NC(=O)C(C)(C)NC(=O)[C@H](CCC(N)=O)NC(=O)[C@H](C)NC(=O)[C@H](CCC(N)=O)NC(=O)[C@H](CCCN)NC(=O)[C@H](CC(=O)O)NC(=O)[C@H](CC(C)C)NC(=O)[C@](C)(CC(C)C)NC(=O)[C@@H](NC(=O)C(C)(C)NC(=O)[C@H](Cc1ccncc1)NC(=O)[C@H](CC(=O)O)NC(=O)[C@H](CO)NC(=O)[C@@H](NC(=O)[C@](C)(Cc1ccccc1F)NC(=O)[C@@H](NC(=O)CNC(=O)[C@H](CCC(=O)O)NC(=O)C(C)(C)NC(=O)[C@@H](N)Cc1ccc(O)cc1)[C@@H](C)O)[C@@H](C)O)[C@@H](C)CC)[C@@H](C)CC)C(=O)N[C@@H](CCCCNC(=O)COCCOCCNC(=O)COCCOCCNC(=O)CC[C@H](NC(=O)CCCCCCCCCOc1ccc(C(=O)O)cc1)C(=O)O)C(=O)NCC(=O)NCC(=O)N1CCC[C@H]1C(=O)N[C@@H](CO)C(=O)N[C@@H](CO)C(=O)NCC(=O)N[C@@H](C)C(=O)N1CCC[C@H]1C(=O)N1CCC[C@H]1C(=O)N1CCC[C@H]1C(=O)N[C@@H](CO)C(N)=O [Example 403] |  |  |  |  |  |  |  | 91.7 | 98.1 | 0.00939 | 0.175 | > 9950 | > 9950 | 0.0375 |  |  | 
3 | CCCCCCCCCCCC(=O)N[C@@H](CCC(=O)NCCOCCOCC(=O)NCCOCCOCC(=O)NCCCC[C@H](NC(=O)[C@H](CO)NC(=O)[C@@H]1CCCN1C(=O)[C@@H]1CCCN1C(=O)[C@@H]1CCCN1C(=O)[C@H](C)NC(=O)CNC(=O)[C@H](CO)NC(=O)[C@H](CO)NC(=O)[C@@H]1CCCN1C(=O)CNC(=O)CNC(=O)[C@H](CCC(=O)O)NC(=O)[C@@H](NC(=O)[C@H](CC(C)C)NC(=O)[C@](C)(Cc1ccc(O)cc1)NC(=O)[C@@H](CCC(=O)O)NC(=O)[C@@H](NC(=O)[C@H](Cc1ccccc1)NC(=O)[C@H](CCCN)NC(=O)C(C)(C)NC(=O)[C@H](CCC(N)=O)NC(=O)[C@H](C)NC(=O)[C@H](CCCCNC(=O)COCCOCCNC(=O)COCCOCCNC(=O)CC[C@H](NC(=O)CCCCCCCCCCC)C(=O)O)NC(=O)[C@H](CCCN)NC(=O)[C@H](CC(=O)O)NC(=O)[C@H](CC(C)C)NC(=O)[C@](C)(CC(C)C)NC(=O)[C@@H](NC(=O)C(C)(C)NC(=O)[C@H](Cc1ccncc1)NC(=O)[C@H](CC(=O)O)NC(=O)[C@H](CO)NC(=O)[C@@H](NC(=O)[C@](C)(Cc1ccccc1F)NC(=O)[C@@H](NC(=O)CNC(=O)[C@H](CCC(=O)O)NC(=O)C(C)(C)NC(=O)[C@@H](N)Cc1ccc(O)cc1)[C@@H](C)O)[C@@H](C)O)[C@@H](C)CC)[C@@H](C)CC)[C@@H](C)CC)C(N)=O)C(=O)O [Example 418] | 87.2 | 0.00599 | 98.8 | 0.0603 | > 9950 | > 9950 | 0.0174 |  |  |  |  |  |  |  | 91 | 0.126 | 1.72
